According to patent US6541450B1, “Parathyroid hormone analogues for the treatment of osteoporosis” (National Research Council of Canada, priority 1994, dated 2003):
Where two headings read alike, the source gives them in different places. Where a SMILES comes first, the peptide text is derived from it. Bridges are numbered along the chain shown (N, C = ends). Where no end group is shown, it is not given here.

Columns and labels:
[1] = tested on: anesthetized female Sprague-Dawley rats; assay: Hypotensive effect, tail artery pressure in anaesthetized rats
Procedure: Female Sprague-Dawley rats (weighing over 290 g) were anaesthetized with intraperitoneally injected sodium pentobarbital (65 mg/kg body weight). Rectal temperature was monitored with a YS1402 thermistor (Yellow Springs Instrument Co., Inc. Yellow Springs, Ohio) and maintained between 36.0 and 38.5° C. throughout the experiment. Ear pinna temperature was also monitored using a YSi banjo thermistor. The tail artery was exposed to cannulated with a Jelco 25-gIV catheter (Johnson and Johnson Medical Inc., Arlington, Tex.) and connected to a Statham pressure transducer, the signals from which were recorded digitally with a Biopac Systems MP100 Monitor (Harvard Instruments, Saint Laurent, QC, Canada). For intravenous injection of PTH or one of its fragments, a femoral vein was also exposed. After surgery, the rat was allowed to stabilize for 8 min after which PTH or one of its fragments (dissolved in acidified saline containing 0.001 N HCl) was injected into the femoral vein or under the skin of the abdomen. Data were collected for 12 min after intravenous injection or for 22 min after subcutaneous injection.

[2] = biological target: T1, adenylyl cyclase, ROS 17/2 cells (Rattus norvegicus, UniProt P25961); assay: Adenylyl cyclase stimulation, [3H]-cyclic AMP production in ROS 17/2 cells; type: cell-based; conditions: ROS cell line
T1 sequence (P25961 27-591): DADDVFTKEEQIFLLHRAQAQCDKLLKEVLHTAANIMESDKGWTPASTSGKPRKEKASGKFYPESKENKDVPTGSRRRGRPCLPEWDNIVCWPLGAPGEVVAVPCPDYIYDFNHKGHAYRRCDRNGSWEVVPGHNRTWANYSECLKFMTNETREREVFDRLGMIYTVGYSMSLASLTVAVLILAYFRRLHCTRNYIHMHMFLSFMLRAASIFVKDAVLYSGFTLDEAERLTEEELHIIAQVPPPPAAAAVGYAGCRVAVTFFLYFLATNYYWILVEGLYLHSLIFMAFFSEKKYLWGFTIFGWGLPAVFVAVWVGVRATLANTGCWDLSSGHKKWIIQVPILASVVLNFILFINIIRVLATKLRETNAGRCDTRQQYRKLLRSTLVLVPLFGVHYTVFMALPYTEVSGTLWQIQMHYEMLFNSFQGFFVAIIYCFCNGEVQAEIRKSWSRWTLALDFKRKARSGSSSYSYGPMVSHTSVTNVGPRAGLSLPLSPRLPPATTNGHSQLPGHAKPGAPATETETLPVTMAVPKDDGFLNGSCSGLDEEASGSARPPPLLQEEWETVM

[3] = biological target: T1, adenylyl cyclase, ROS 17/2 cells; conditions: previously reported, cited from earlier work
[4] = tested on: ovariectomized (OVX) Sprague-Dawley rats; assay: Anabolic activity in ovariectomized rat model, injections from 2nd to 8th week after OVX; type: in vivo; conditions: 0.6 nmole/100 g s.c., 36 injections, weeks 2-8 after OVX
Source text: A full description of the protocol is given in Rixon et al, J. Bone & Mineral Research 9, 1179-1189, 1994 and Whitfield et al Calcif. Tissue Int. 58, 81-87, 1996 incorporated herein by reference. Normal, Sham-OVX (ovariectomized), and OVX Sprague-Dawley rats (3 months-old; 255-260 g) were purchased from
Charles River Laboratories (St. Constant, QC). The rats were randomized into groups of 8 animals which received Purina rat chow and water ad libitum. There were no unscheduled deaths. The animals received 6, once-daily subcutaneous injections/week starting at the end of the second week after OVX, and ending at the end of the 8th week after OVX (i.e., 36 injections). Eight Sham-OVX and 8 OVX controls rats received 36 injections of vehicle (0.15 M NaCl containing 0.001N HCl) while 8 OVX rats received 0.6 nmole of fragment in vehicle/100 g of body weight). At the end of the 8th week after OVX, femurs were removed isolated, cleaned, and cut in half at mid-diaphysis and the proximal half was discarded. After removing the epiphysis, each half-femur was split lengthwise into two parts and the bone marrow was flushed out.
The bone-building potencies of the fragments were assessed from the changes in the mean thicknesses (area/perimeter) of the trabeculae in the distal half-femurs from the variously treated animals. To measure mean trabecular thickness, the two demineralized half-femurs from each rat were dehydrated and embedded in paraffin. Longitudinal, 10-μm sections from the middle plane of each bone were cut and then strained with Sanderson's rapid bone stain (Surgipath Medical Industries, Inc., Winnipeg, MB, Canada). The mean trabecular thickness was measured using a M4 imaging system and bone morphometric software from Imaging Research Inc., (St. Catherines, ON, Canada).
The results are further presented in the form of a bar graph in FIG. 7.

[5] = tested on: ovariectomized (OVX) rats with severely depleted trabecular bone; assay: Bone restoration in OVX rats with severely depleted trabecular bone, treatment from 9 weeks after OVX; type: in vivo, rat; conditions: 0.6 nmole/100 g once daily for 6 weeks, started 9 weeks after OVX
Source text: Doses were based upon dose-response data on hPTH(1-31)-NH2. […] By the end of the 9th week they had lost about 75% of their femoral trabecular bone mass. […] The fragment could also stimulate trabecular bone growth in much older rates. […] Accordingly, the dosage of 0.6 nmole/100 g of body weight was used in further tests.
In this second example of bone restoration, the abilities of the lactam fragments to restore severely depleted trabecular bone are compared. In this experiment, the 6-week program of once-daily injections of 0.6 nmole of peptide/100 g of body weight of young sexually mature rats was delayed until the end of the 9th week after OVX. At this time, 75% of their trabecular bone had been lost.

Compound: CC[C@H](C)[C@H](NC(=O)[C@H](CCC(=O)O)NC(=O)[C@H](CO)NC(=O)[C@@H](NC(=O)[C@@H](N)CO)C(C)C)C(=O)N[C@@H](CCC(N)=O)C(=O)N[C@@H](CC(C)C)C(=O)N[C@@H](CCSC)C(=O)N[C@@H](Cc1c[nH]cn1)C(=O)N[C@@H](CC(N)=O)C(=O)N[C@@H](CC(C)C)C(=O)NCC(=O)N[C@@H](CCCCN)C(=O)N[C@@H](Cc1c[nH]cn1)C(=O)N[C@@H](CC(C)C)C(=O)N[C@@H](CC(N)=O)C(=O)N[C@@H](CO)C(=O)N[C@@H](CCSC)C(=O)N[C@@H](CCC(=O)O)C(=O)N[C@@H](CCCN=C(N)N)C(=O)N[C@H](C(=O)N[C@@H](CCC(=O)O)C(=O)N[C@@H](Cc1c[nH]c2ccccc12)C(=O)N[C@@H](CC(C)C)C(=O)N[C@@H](CCCN=C(N)N)C(=O)N[C@@H](CCCCN)C(=O)N[C@@H](CCCCN)C(=O)N[C@@H](CC(C)C)C(=O)N[C@@H](CCC(N)=O)C(=O)N[C@@H](CC(=O)O)C(N)=O)C(C)C [peptide 6, hPTH-(1-30)-NH2] (H-SVSEIQLMHNLGKHLNSMERVEWLRKKLQD-NH2)
- rate of transport of subcutaneously injected peptide to the vascular system ([1]; subcutaneous, 0.8 nmol/100 g of body weight): significantly (p<0.05) reduced rates of transport
- EC50 ([2]; read-out: EC50, AC-stimulating activity): 20 nM
- EC50 ([3]; ROS cell line, read-out: EC50, AC-stimulating activity): 20 nM

Compound: CC[C@H](C)[C@H](NC(=O)[C@H](CCC(=O)O)NC(=O)[C@H](CO)NC(=O)[C@@H](NC(=O)[C@@H](N)CO)C(C)C)C(=O)N[C@@H](CCC(N)=O)C(=O)N[C@@H](CC(C)C)C(=O)N[C@@H](CCSC)C(=O)N[C@@H](Cc1c[nH]cn1)C(=O)N[C@@H](CC(N)=O)C(=O)N[C@@H](CC(C)C)C(=O)NCC(=O)N[C@@H](CCCCN)C(=O)N[C@@H](Cc1c[nH]cn1)C(=O)N[C@@H](CC(C)C)C(=O)N[C@@H](CC(N)=O)C(=O)N[C@@H](CO)C(=O)N[C@@H](CCSC)C(=O)N[C@@H](CCC(=O)O)C(=O)N[C@@H](CCCNC(=N)N)C(=O)N[C@H](C(=O)N[C@H]1CCC(=O)NCCCC[C@@H](C(=O)N[C@@H](CC(C)C)C(=O)N[C@@H](CC(C)C)C(=O)N[C@@H](CCC(N)=O)C(=O)N[C@@H](CC(=O)O)C(=O)N[C@H](C(N)=O)C(C)C)NC(=O)[C@H](CCCNC(=N)N)NC(=O)[C@H](CC(C)C)NC(=O)[C@H](Cc2c[nH]c3ccccc23)NC1=O)C(C)C [peptide 3, [Leu^27]cyclo(Glu^22-Lys^26)-hPTH-(1-31)-NH2] (H-SVSEIQLMHNLGKHLNSMERVEWLRKLLQDV-NH2; lactam 22-26; N-terminus assumed)
- trabecular thickness (bone-building potency) [4]: especially superior activity compared to the linear analogue
- hypotensive action, in words ([1]; subcutaneous injection): enhanced hypotensive effects
- time for tail artery pressure to fall to its minimum ([1]; subcutaneous injection): much shorter time
- increase in activity (AC) of cyclization plus Leu27 versus native sequence 1 [2]: ~6 fold
- trabecular bone volume ([5]; listed as (Leu^27)cyclo(Glu^22-Lys^26)-hPTH-(1-31)NH2): restored the trabecular bone volume to the values in normal control rats
- trabecular bone volume ([5]; listed as (Leu^27)cyclo(Glu^22-Lys^26)hPTH-(1-31)-NH2): most effective of the fragments, restoring the bones to the values in normal control rats

Compound: [Leu^27]-hPTH-(1-34)-NH2 (SVSEIQLMHNLGKHLNSMERVEWLRKLLQDVHNF-NH2; not fully specified (bridges); UniProt P01270 32-65, looked up, variant K27L) [reference compound]
- AC activity in the ROS cell line, comparison in words [3]: more active in stimulating AC activity in the ROS cell line than hPTH-(1-34)-NH2
